Among the data in patent US9416143B2, “Griseofulvin derivatives” (PIERRE FABRE MEDICAMENT, priority 2012, dated 2016) are IC50 values, retold here.

Format in all cases: cell-based
In assay [1] the test system is A549 (lung cancer cell line). Put plainly: Cell proliferation (ATPLite) on A549 line. Conditions: read 72 hours after addition. The method, then:
(§1) The lines N1E115 (ATCC, CRL2263), MDA-MB-231 (ATCC, HTB26) and HSC-1 (Health Science Research Resources Bank, JCRB1015) were cultured in DMEM medium (Dulbecco's Modified Eagle Medium) supplemented with 2 mM of L-Glutamine (Sigma, G7513) and 10% foetal calf serum (Hyclone, SH30109.03) or 20% for the HSC-1 cells. The HCC-1937 (ATCC, CRL2336) and A549 (ATCC, CCL185) lines were cultured in RPMI medium (Roswell Park Memorial Institute Medium) supplemented with 10% foetal calf serum and 2 mM of L-Glutamine. Finally, the SCC114 (DSMZ, ACC662) line was cultured in MEM medium (Minimum Essential Medium Eagle) supplemented with 10% foetal calf serum and 2 mM of L-Glutamine. Initially, in 96-well plates (Perkin Elmer, 6005668), the cells were seeded in their respective culture media with 750 cells per well for N1E115; 1000 cells per well for SCC114 and A549; 2000 cells per well for HCC-1937 and HSC-1; 2500 cells per well for MDA-MB-231. Cascade dilution of each compound was performed in dimethylsulfoxide (DMSO) (Sigma, D8418) from 10 mM stock solutions in 100% DMSO. Each of the dilutions was added to the cells 24 hours after seeding. Under these conditions the final solvent concentration was 0.1% DMSO. Reading of cell proliferation was conducted 72 hours after addition of products with the ATPLite kit (Perkin Elmer, 6016947) and following the manufacturer's directions except in the case of the HCC-1937 line for which this reading was carried out 48 hours after treatment. Analysis of proliferation results was performed by comparing with conditions in which solely the vehicle was added to the cells. The dose-response curves obtained were analysed using Prism 4.03 software (GraphPad Software Inc.) to determine the concentration of each compound allowing 50% inhibition of cell proliferation (IC50).
(§2) As examples, the cytotoxic properties of some compounds of the invention evaluated on the lines A549 (lung cancer cell line), MDA-MB-231 line (mammary adenocarcinoma cell line), N1E115 (mouse brain neuroblastoma cell line), HCC-1937 line (primary ductam breast carcinoma cell line), HSC-1 (cutaneous squamous carcinoma cell line) and SCC114 line (oral squamous carcinoma cell line) are reported in Table 1, as compared with griseofulvin used as control product. The concentration values are expressed in micromolar units (μM).

The subject of assay [2] is HCC-1937 line (primary ductam breast carcinoma cell line). Put plainly: Cell proliferation (ATPLite) on HCC-1937 line. Conditions: read 48 hours after treatment. The method, then:
as §1, §2
(In ATP-based viability assays light output follows the ATP content of the culture.)

The subject of assay [3] is N1E115 (mouse brain neuroblastoma cell line). Put plainly: Cell proliferation (ATPLite) on N1E115 line. Conditions: read 72 hours after addition. As for the experimental part:
as §1, §2

The test system of assay [4] is SCC114 line (oral squamous carcinoma cell line). Kind of assay: Cell proliferation (ATPLite) on SCC114 line. Conditions: read 72 hours after addition. The method, then:
as §1, §2

Assay [5] has as its system HSC-1 (cutaneous squamous carcinoma cell line). Kind of assay: Cell proliferation (ATPLite) on HSC-1 line. The following applies: 50% inhibition of cell proliferation, read 72 hours after addition. As for the experimental part:
as §1, §2

Assay [6] has as its system MDA-MB-231 line (mammary adenocarcinoma cell line). Put plainly: Cell proliferation (ATPLite) on MDA-MB-231 line. Conditions: read 72 hours after addition. As for the experimental part: as §1, §2
[7] abbreviates: 50% inhibition of cell proliferation.
[8] abbreviates: 50% inhibition of cell proliferation, read-out: IC50 (μM) HCC1937.
The mark [9] stands for this setting: 50% inhibition of cell proliferation, read-out: IC50 (μM) N1E-115.
Where [10] appears, read: Homo sapiens, A549, 50% inhibition of cell proliferation.
Where [11] appears, read: Homo sapiens, HCC1937, 50% inhibition of cell proliferation.
Setting [12] is: Mus musculus, N1E-115, 50% inhibition of cell proliferation.
The mark [13] stands for this setting: SCC114, 50% inhibition of cell proliferation.
Setting [14] is: Homo sapiens, MDA-MB-231, 50% inhibition of cell proliferation.

Molecules are shown by their SMILES. Read-outs that look alike come from different tables or passages of the source.

Regarding `COc1cc(OC)c2c(c1Cl)O[C@]1(C2=O)C2=C(C[C@H](c3ccccc3)O2)C(=O)C[C@H]1C` [compound 3, (2R,2′S,6R)-7′-chloro-4′,6′-dimethoxy-6-methyl-2-phenyl-5,6-dihydro-2H,3′H-2,7′-spirobi[benzofuran]-3′,4(3H)-dione], the IC50 in assay [1] (setting [7]) was 0.25 µM; in assay [2] (setting [8]), over 10 µM; in assay [3] (setting [9]) it was 0.21 µM; in assay [4] (setting [7]), 0.52 µM; in assay [5], 6 µM; in assay [6] (setting [7]) it was 0.45 µM.

Turning to `COc1cc(OC)c2c(c1Cl)O[C@]1(C2=O)C2=C(C[C@](C)(c3ccccc3)O2)C(=O)C[C@H]1C` [compound 5, (2R,2′S,6R)-7′-chloro-4′,6′-dimethoxy-2,6-dimethyl-2-phenyl-5,6-dihydro-2H,3′H-2,7′-spirobi[benzofuran]-3′,4(3H)-dione], the IC50 in assay [1] (setting [7]) is 0.95 µM; in assay [2] (setting [8]), over 10 µM; in assay [3] (setting [9]), 0.25 µM; in assay [4] (setting [7]), 0.38 µM; in assay [6] (setting [7]) it was 0.86 µM.

With `COc1cc(OC)c2c(c1Cl)O[C@]1(C2=O)C2=C(C[C@@](CCO)(c3ccccc3)O2)C(=O)C[C@H]1C` [compound 46, (2R,2′S,6R)-7′-chloro-2-(2-hydroxyethyl)-4′,6′-dimethoxy-6-methyl-2-phenyl-5,6-dihydro-2H,3′H-2,7′-spirobi[benzofuran]-3′,4(3H)-dione], the IC50 in assay [1] (setting [7]) is 0.86 µM; in assay [2] (setting [8]) it was over 10 µM; in assay [3] (setting [9]), 0.22 µM; in assay [4] (setting [7]), 0.57 µM; in assay [5], 0.79 µM.

Take `COc1cc(OC)c2c(c1Cl)O[C@@]1(C=C([S+]([O-])c3ccccc3)C(=O)C[C@H]1C)C2=O` (stereo partly shown) [compound 95]: the IC50 in assay [1] (setting [7]) turned out to be 0.25 µM; in assay [2] (setting [8]), 0.43 µM; in assay [3] (setting [9]), 1 µM; in assay [4] (setting [7]), 0.25 µM; in assay [5], 0.32 µM; in assay [6] (setting [7]), 0.54 µM.

As to `COc1cc(OC)c2c(c1Cl)O[C@]1(C2=O)C(S(=O)(=O)Cc2ccccc2)=CC(=O)C[C@H]1C` [compound 145, (1′R,6′R)-2′-(benzylsulfonyl)-7-chloro-4,6-dimethoxy-6′-methyl-3H-spiro[benzofuran-2,1′-cyclohex[2]ene]-3,4′-dione], the IC50 in assay [1] (setting [7]) stood at 1.5 µM; in assay [2] (setting [8]) it was 1.4 µM; in assay [3] (setting [9]), 3 µM; in assay [4] (setting [7]), 0.385 µM; in assay [5] it was 1.4 µM; in assay [6] (setting [7]), 2 µM.

As to `COC(=O)C1=C[C@H](c2ccccc2)C2=C(C[C@@H](C)[C@]3(Oc4c(Cl)c(OC)cc(OC)c4C3=O)C2=O)N1` [compound 149, (2S,4′R,7′R)-methyl 7-chloro-4,6-dimethoxy-7′-methyl-3,5′-dioxo-4′-phenyl-4′,5′,7′,8′-tetrahydro-1′H,3H-spiro[benzofuran-2,6′-quinoline]-2′-carboxylate], the IC50 in assay [1] (setting [10]) is 0.24 µM; in assay [2] (setting [11]) it was over 10 µM; in assay [3] (setting [12]), 0.21 µM; in assay [4] (setting [13]), 0.23 µM; in assay [5] it was 0.72 µM; in assay [6] (setting [14]), 0.34 µM.

`COC(=O)c1cc(-c2ccccc2)c2c(n1)C[C@@H](C)[C@]1(Oc3c(Cl)c(OC)cc(OC)c3C1=O)C2=O` [compound 152, (2S,7′R)-methyl 7-chloro-4,6-dimethoxy-7′-methyl-3,5′-dioxo-4′-phenyl-7′,8′-dihydro-3H,5′H-spiro[benzofuran-2,6′-quinoline]-2′-carboxylate]: the concentration for half-maximal inhibition (IC50) was 0.48 µM in assay [1] (setting [10]); over 10 µM in assay [2] (setting [11]); 0.62 µM in assay [3] (setting [12]); 0.71 µM in assay [4] (setting [13]); 10 µM in assay [5]; 1.6 µM in assay [6] (setting [14]).

`COc1cc(OC)c2c(c1Cl)O[C@]1(C2=O)C2=C(C[C@@H](c3ccccc3)O2)/C(=N/O)C[C@H]1C` [compound 217, (2′S,6R,E)-7′-chloro-4-(hydroxyimino)-4′,6′-dimethoxy-6-methyl-2-phenyl-3,4,5,6-tetrahydro-2H,3′H-2,7′-spirobi[benzofuran]-3′-one]: the IC50 in assay [1] (setting [7]) is 0.36 µM; in assay [2] (setting [8]), over 10 µM; in assay [3] (setting [9]) it was 0.73 µM; in assay [4] (setting [7]) it was 0.33 µM; in assay [5], 1.3 µM; in assay [6] (setting [7]), 0.63 µM.

`COc1cc(OC)c2c(c1Cl)O[C@]1(C2=O)C(O)c2ccc(C)nc2C[C@H]1C` (stereo partly drawn) [compound 249, (2S,7′R)-7-chloro-5′-hydroxy-4,6-dimethoxy-2′,7′-dimethyl-7′,8′-dihydro-3H,5′H-spiro[benzofuran-2,6′-quinolin]-3-one]: the concentration for half-maximal inhibition (IC50) in assay [1] (setting [10]) was 0.55 µM; in assay [2] (setting [11]), over 10 µM; in assay [3] (setting [12]) it was 0.26 µM; in assay [4] (setting [13]), 0.42 µM; in assay [5], 0.88 µM; in assay [6] (setting [14]), 0.34 µM.

For `CCc1ccc2c(n1)C[C@@H](C)[C@]1(Oc3c(Cl)c(OC)cc(OC)c3C1=O)C2O` (stereo partly drawn) [compound 250, (2 S,7′R)-7-chloro-2′-ethyl-5′-hydroxy-4,6-dimethoxy-7′-methyl-7′,8′-dihydro-3H,5′H-spiro[benzofuran-2,6′-quinolin]-3-one], the IC50 in assay [1] (setting [10]) was 1.4 µM; in assay [2] (setting [11]), over 10 µM; in assay [3] (setting [12]), 1.4 µM; in assay [4] (setting [13]), 0.54 µM; in assay [5] it was 1.9 µM; in assay [6] (setting [14]) it was 0.35 µM.

For `COC(=O)c1cc(-c2ccccc2)c2c(n1)C[C@@H](C)[C@]1(Oc3c(Cl)c(OC)cc(OC)c3C1=O)[C@H]2O` [compound 252, (2S,5′S,7′R)-methyl 7-chloro-5′-hydroxy-4,6-dimethoxy-7′-methyl-3-oxo-4′-phenyl-7′,8′-dihydro-3H,5′H-spiro[benzofuran-2,6′-quinoline]-2′-carboxylate], the IC50 in assay [1] (setting [10]) was 0.25 µM; in assay [2] (setting [11]), over 10 µM; in assay [3] (setting [12]) it was 0.2 µM; in assay [4] (setting [13]), 0.32 µM; in assay [5], 0.52 µM; in assay [6] (setting [14]), 0.38 µM.

As usually defined, the IC50 is the concentration that gives 50% inhibition.
